According to paper PMC6043506, “Investigating molecular interactions between oxidized neuroglobin and cytochrome c” (Scientific Reports, 2018):
Like-named read-outs stand apart in the source and are kept apart here.

B1: hNgb: ferric human Ngb; six-coordinated heme protein; PDB ID 4MPM (Chain B) (protein, UniProt Q9NPG2 1-151, looked up)
Neuroglobin: MERPEPELIRQSWRAVSRSPLEHGTVLFARLFALEPDLLPLFQYNCRQFSSPEDCLSSPEFLDHIRKVMLVIDAAVTNVEDLSSLEEYLASLGRKHRAVGVKLSSFSTVGESLLYMLEKCLGPAFTPATRAAWSQLYGAVVQAMSRGWDGE
modifications: ferric heme

Experiments:
Cyt c = molecular target: T1, Cyt c (Equus caballus, UniProt P00004); assay: SPR qualitative comparison of peptide bindings to immobilized Cyt c; format: binding, Equine heart; conditions: for SPR signal compared to PhNgb1-Wt (qualitative) / binding to Cyt c (qualitative) / binding to Cyt c compared to PhNgb2-Wt (qualitative): SPR sensorgrams, HBS-P+1% DMSO, pH 7.4, 60 s injection; for SPR signal compared to PhNgb1-Wt (qualitative) / binding to Cyt c (qualitative): Fig. 4A; for binding to Cyt c (qualitative): repeated at least two times; for binding to Cyt c compared to PhNgb2-Wt (qualitative): Fig. 4C
T1 construct: Equine heart Cyt c and dimethyl sulfoxide (DMSO) were purchased from Sigma Aldrich; purchased Sigma Aldrich; host or cells: equine heart (tissue-derived, as the product name says)
Procedure: The peptides were dissolved in 100% DMSO and further diluted in the running buffer (10 mM HEPES pH 7.4, 150 mM NaCl, and 0.05% v/v surfactant P20 supplemented at 1% v/v DMSO) and injected over the Cyt c-immobilized surface at various concentrations.
Equine heart Cyt c and dimethyl sulfoxide (DMSO) were purchased from Sigma Aldrich. The amine coupling kit, Series S sensor chip CM5, and HBS-P+ buffer (0.1 M HEPES, 1.5 M NaCl, and 0.5% v/v surfactant P20) were purchased from GE Healthcare.
The SPR experiments were performed using a Biacore T200 SPR instrument (GE Healthcare). Cyt c, which was used as a ligand, was immobilized onto the CM5 chip up to a level of ~9000 Response Units (RU) in the presence of 10 mM sodium acetate buffer at pH 5.5. A standard amine coupling chemistry according to the manufacturer’s recommended protocol (GE Healthcare) was used to immobilize Cyt c. HBS-P+ buffer was diluted 10X to 10 mM HEPES pH 7.4, 150 mM NaCl, and 0.05% v/v surfactant P20 (HBS-P) in ddH2O and filtered through a […] polystyrene membrane filter. HBS-P was used as the immobilization running buffer. The peptides were used as analytes to inject over the Cyt c-immobilized CM5 chip surface in various concentrations in an HBS-P+1% DMSO buffer. HBS-P+1% DMSO was used as the running buffer in the analyte-ligand binding experiments. […] All analytes were injected in duplicate in each cycle. The kinetics experiments were repeated for three times. All qualitative experiments, including inhibition experiments were repeated at least two times with the wild type peptides injected as positive controls in each experiment.
VMD[34] was used to analyze and visualize the structure and simulation trajectories. The total interaction energy was calculated using NAMD energy plugin available in VMD. Each frame in the NVT simulation trajectory was saved at every 200 ps. An atomic distance of 3.5 Å and angle cutoff of 30 degrees were used to trace hydrogen bonding and the same atomic distance of 3.5 Å was used as the cut off to analyze interfacial contacts and salt bridges. For contacts analysis, only residues that show contacts for more than 1000 frames were considered. Carma[38] was used to determine the radius of gyration (Rg) and to perform PCA as well as PCA-based cluster analyses. GraphPad prism (GraphPad Software, Inc.) was used to generate the graphs. The bonding distances between D73 (in hNgb, atom OD2) and K72 (in Cyt c, atom NZ), T77 (in hNgb, atom OG1) and K72 (in Cyt c, atom NZ), E87 (in hNgb, atom OE2) and K27 (in Cyt c, atom NZ) as well as between E86 (in hNgb, atom OE2) and K27 (in Cyt c, atom NZ) were plotted. All graphs obtained from analyses of MD simulation trajectories were averaged with 25 neighboring points and 4th order smoothing polynomial using the GraphPad prism software. Biacore T200 evaluation software version 1.0 (GE Healthcare) was used to analyze the SPR sensorgrams.

[1] = test system: PhNgb1-Wt binding to Cyt c; assay: SPR inhibition experiment: PhNgb1-Wt binding to immobilized Cyt c in presence of PCyt c; set-up: species or system Equine heart; conditions: mixture of PhNgb1-Wt and PCyt c in 1:2 molar ratio, Fig. 4B, 60 s injection
Procedure: We conducted SPR experiments with mutated peptides. […] (hNgb) and […] (hNgb) together take part in binding to […] (Cyt c), making a strong bonding as predicted by simulations. We could not perform quantitative investigations (via determination of KD values) for the mutated peptides due to solubility issues at higher concentrations. […] This experiment further confirms the involvement of the predicted amino acid […]) in the hNgb-Cyt c complex formation. […] The SPR experiments were performed using a Biacore T200 SPR instrument (GE Healthcare). Cyt c, which was used as a ligand, was immobilized onto the CM5 chip up to a level of ~9000 Response Units (RU) in the presence of 10 mM sodium acetate buffer at pH 5.5. A standard amine coupling chemistry according to the manufacturer's recommended protocol (GE Healthcare) was used to immobilize Cyt c. HBS-P+ buffer was diluted 10X to 10 mM HEPES pH 7.4, 150 mM NaCl, and 0.05% v/v surfactant P20 (HBS-P) in ddH2O and filtered through a […] polystyrene membrane filter. HBS-P was used as the immobilization running buffer. The peptides were used as analytes to inject over the Cyt c-immobilized CM5 chip surface in various concentrations in an HBS-P+1% DMSO buffer. HBS-P+1% DMSO was used as the running buffer in the analyte-ligand binding experiments. […] All analytes were injected in duplicate in each cycle. […]

ferric Cyt c = conditions: SPR, nanopore-based nanopipettes, ITC; ferric hNgb and ferric Cyt c; cited from earlier work
Excerpt: Electrochemical impedance spectroscopy measurements have also confirmed the formation of an hNgb-Cyt c complex. Computational docking is useful to investigate the complex formation between proteins. Several computational docking studies have bee ...

caspase 9 activation = conditions: binding of Ngb to Cyt c alone, no redox reaction required, cited from earlier work
Excerpt: Cytochrome c (Cyt c), which is another heme protein[13], is a known Ngb binding partner[12],[14]. This mitochondrial heme protein triggers cell apoptosis during apoptotic cell signaling. During ischemic insults, the cellular apoptotic pathway is activated, leading to the release of ferric Cyt c, which is an essential component of the apoptosome, into the cytoplasm[16]–[18]. […] Importantly, this K72 residue takes part in interactions of Cyt c with apoptotic protease-activation factor-1[31]. […] There ...

T1 sequence (P00004 whole entry): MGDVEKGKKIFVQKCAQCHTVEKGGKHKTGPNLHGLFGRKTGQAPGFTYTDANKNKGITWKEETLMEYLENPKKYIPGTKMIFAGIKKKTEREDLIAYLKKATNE

| Molecule | SPR signal compared to PhNgb1-Wt (qualitative) (Cyt c) | binding to Cyt c (qualitative) (Cyt c) | binding to Cyt c compared to PhNgb2-Wt (qualitative) (Cyt c) | further results |
| --- | --- | --- | --- | --- |
| LENPKKYIP [PCyt c, peptide with amino acids L68 to P76 in Cyt c] |  |  |  | binding of PCyt c to immobilized Cyt c (qualitative) (Cyt c; SPR): does not bind to immobilized Cyt c; inhibition of PhNgb1-Wt binding (qualitative) [1]: diminished signal as compared to PhNgb1-Wt signal |
| MLVIAAAVTNVED [PhNgb1-M2] | weaker SPR signals as compared to SPR signals for PhNgb1-Wt | bind to Cyt c |  |  |
| MLVIDAAVANVED [PhNgb1-M1] | weaker SPR signals as compared to SPR signals for PhNgb1-Wt | bind to Cyt c |  |  |
| SSLAAYLAS [PhNgb2-M2] |  |  | comparable binding |  |
| SSLEAYLAS [PhNgb2-M1] |  |  | stronger binding |  |
| B1 |  |  |  | affinity to ferric Cyt c (ferric Cyt c): micromolar affinity; effect on caspase 9 activation (caspase 9 activation): enough to suppress caspase-9 activation; effect on caspase 9 activation (caspase 9 activation; listed as Ngb): sufficient to block the Cyt c-induced caspase 9 activation |
